Data set [1] is described as follows: ATPase activity assay ([γ-32P]ATP hydrolysis, TLC), steady-state kinetics. It counts as biochemical. The method, then: (§1) The ATPase activity was determined, as previously described, by directly monitoring [γ-^32P] ATP hydrolysis by thin-layer chromatography (TLC). ATP (3000 Ci/mmol) as tracer, plus 1 mM of cold ATP, unless otherwise stated, and nucleic acids as indicated. Samples were incubated for 5 minutes at 25°C and dotted onto TLC sheets of polyethylenimine cellulose. The products were separated by ascending chromatography with 0.5 M KH2PO4 (pH 3.4). The intensities of the radioactive bands corresponding to ATP and Pi were quantified by densitometric scanning with PhosphoImager. For the stimulation of the ATPase activity, the ssDNA oligonucleotide oligo(dT)20 or the ssRNA oligonucleotide oligo (rU)20 were used. Time-course experiments were performed under the conditions described above. Samples were taken at different time points and processed as described above.
ATPase reactions were performed as described, in the presence of increasing amounts of nucleic acids and variable ATP concentrations. […] The relative -fold increase in the ATPase velocities 1−(vDNA/v) as a function of the nucleic acid concentrations was fitted to the hyperbolic relationship: [drawing 2] (2) where vNA is the apparent velocity of the reaction in the presence of nucleic acid, v is the velocity in its absence, KD is the apparent affinity for the nucleic acid and [NA] is the concentration of the nucleic acid substrate. The symbol KD is used, instead of Km, solely to reflect the fact that the NA is not a reactant (i.e. it is not converted into products) but only a cofactor of the reaction, without implying any assumption on the nature of the microscopic rates contributing to the KD value itself.

For data set [2], the system named is partially dsDNA substrates (18/38-mer). Put plainly: DNA helicase assay. It counts as biochemical. An excerpt: (§2) The helicase activity of DDX3wt and mutant forms was monitored by measuring the conversion of a double stranded (ds) DNA or RNA (labelled at the 5′-end of one strand with a 6-FAM fluorescent group) into single stranded (ss) nucleic acid. For the RNA helicase assay, a 18/36mer ds RNA oligonucleotide with both 3′ and 5′-protruding ss ends was used. For the DNA helicase assay, three different dsDNA substrates were used, all of them composed of the same 18mer oligonucleotide 5′-FAM labelled and three different 38 mer oligonucleotides with the sequence complementary to the 18 mer at different positions. Annealing of the 18 mer to each of the 38 mer generated the different DNA substrates shown in Fig. 5 A. A final concentration of 20 nM RNA or DNA substrate was used in the experiments, unless otherwise stated. The amounts of the different DDX3 proteins are indicated in the respective Figures.
(§3) Reactions were performed in 50 mM TrisHCl pH 7.5, 1 mM DTT, 0.2 mg/ml BSA, 5% glycerol and 1 mM ATP, 10 mM MgCl2 at 37°C degrees for 10′ and stopped by adding EDTA 50 mM pH 8. Products were separated on a native 7% PAGE […] at 5 W in TBE buffer with 0.1% SDS at 4°C for 2 hours for RNA substrates, 4 hours for DNA substrates. Substrates and products were quantified by laser scanning densitometry (Thyphoon-TRIO, GE Healthcare). For trap-assays, the enzyme and the RNA substrate were incubated on ice for 4 min, in the absence of ATP. Reactions were started by addition of ATP and a 50-fold molar excess (1 µM) of r(A)40 trap RNA oligonucleotide, followed by incubation at 37°C for the indicated times.

Data set [3] can be described thus: ATPase time-course (burst kinetics). It counts as biochemical. The protocol:
as §1
Variation of the ATPase reaction as a function of time was fitted to the mixed-exponential equation: [drawing 3] (3) where [P] is the concentration of products (pmols) at any given time point, t is time, Aburst is the burst amplitude, k burst is the rate of the exponential phase, k ss is the rate of the steady-state linear phase.

Data set [4] deals with 18/36mer ds RNA oligonucleotide. Put plainly: RNA helicase assay. It counts as biochemical.
Excerpt: as §2, §3
Variation of the amount of unwound RNA substrate as a function of time was fitted to a simple exponential equation: [drawing 4] (4) where MAX is the amount of unwound substrate extrapolated at infinite time, kuw is the apparent rate of unwinding.

Another data set has as its system HelaP4 cells. It counts as cell-based. The method, then: We therefore analyzed this peptide further, with respect to functional interference with HIV-1 replication. After fusion to a protein transduction domain, different amounts of the DDX3-INS1 peptide or a control peptide were transduced into HelaP4 cells 24 hours after infection with HIV-1Lai. HIV-1 infection was quantified 48–72 hours after infection by titering released HIV-1 in culture supernatants on Tzm-bl cells based on measuring the luciferase activity in the cell lysates. […] The DDX3-INS1 peptide was not toxic for the cells in the concentration range used (data not shown). Thus, binding of the peptide ligand to the DDX3 insertion, interferes with HIV-1 replication further providing evidence of an important functional role of the DDX3 insertion not only for enzymatic functions, but also for HIV-1 replication.

The next data set addresses T1, N-DDX3 (Homo sapiens, UniProt O00571).
T1 construct: The N-DDX3 mutant (aa 1–427) was obtained using the forward primer; N-terminal peptide of ~3 kDa comprising 6xHis (pTrcHisA) (N); seven additional amino acids KQGCFGG (C); made in house; host or cells: E. coli BL-21
Put plainly: Inhibition of N-DDX3 ATPase activity. It counts as biochemical. To be noted: increasing amounts of inhibitor. The method, then:
as §1

Another data set addresses T2, DDX3wt (Homo sapiens, UniProt O00571).
T2 construct: DDX3wt (aa 1–662), and the N-DDX3 (aa 1–427); N-terminal peptide of ~3 kDa comprising 6xHis (pTrcHisA) (N); seven additional amino acids KQGCFGG (C); made in house; host or cells: E. coli BL-21
Put plainly: Inhibition of DDX3wt ATPase activity. It counts as biochemical. To be noted: increasing amounts of inhibitor. The protocol:
as §1

The mark [5] stands for this setting: relative to absence of nucleic acid.

Experimental findings from article PMC3093405, “A Motif Unique to the Human Dead-Box Protein DDX3 Is Important for Nucleic Acid Binding, ATP Hydrolysis, RNA/DNA Unwinding and HIV-1 Replication” (PLoS ONE, 2011) are described below.

Ends that are not written are not given here.

T1 sequence (O00571 1-427): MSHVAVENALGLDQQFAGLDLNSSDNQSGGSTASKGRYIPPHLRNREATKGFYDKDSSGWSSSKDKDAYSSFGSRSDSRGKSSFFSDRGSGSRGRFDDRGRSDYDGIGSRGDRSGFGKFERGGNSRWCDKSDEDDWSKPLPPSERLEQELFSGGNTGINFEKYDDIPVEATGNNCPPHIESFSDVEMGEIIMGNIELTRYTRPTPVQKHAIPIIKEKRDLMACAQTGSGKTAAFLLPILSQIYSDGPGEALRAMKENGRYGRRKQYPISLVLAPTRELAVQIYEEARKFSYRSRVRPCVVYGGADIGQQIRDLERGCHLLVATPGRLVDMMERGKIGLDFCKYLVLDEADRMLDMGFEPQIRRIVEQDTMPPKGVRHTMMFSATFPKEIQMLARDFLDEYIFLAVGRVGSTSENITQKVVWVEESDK
T2 sequence (O00571 whole entry, the tested form may be a part): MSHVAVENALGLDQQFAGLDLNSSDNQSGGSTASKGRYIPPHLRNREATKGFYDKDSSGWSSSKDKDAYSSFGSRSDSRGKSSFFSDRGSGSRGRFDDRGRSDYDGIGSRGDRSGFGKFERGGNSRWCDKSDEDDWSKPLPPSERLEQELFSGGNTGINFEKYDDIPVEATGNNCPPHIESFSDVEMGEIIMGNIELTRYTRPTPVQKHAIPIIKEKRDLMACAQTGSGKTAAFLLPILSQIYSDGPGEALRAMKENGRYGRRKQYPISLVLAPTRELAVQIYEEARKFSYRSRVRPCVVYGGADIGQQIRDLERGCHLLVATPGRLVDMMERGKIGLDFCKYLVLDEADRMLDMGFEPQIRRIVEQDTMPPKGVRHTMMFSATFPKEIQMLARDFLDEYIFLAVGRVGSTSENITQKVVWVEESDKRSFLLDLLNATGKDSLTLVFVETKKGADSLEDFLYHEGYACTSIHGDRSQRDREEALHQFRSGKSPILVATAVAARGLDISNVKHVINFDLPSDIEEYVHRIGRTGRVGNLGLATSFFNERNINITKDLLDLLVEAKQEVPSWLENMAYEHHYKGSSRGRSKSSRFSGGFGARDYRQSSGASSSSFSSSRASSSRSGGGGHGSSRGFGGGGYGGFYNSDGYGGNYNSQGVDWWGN

Turning to “DDX3wt: recombinant full length human DDX3 (aa 1–662), N-terminal his-tagged, expressed in E. coli”, the k cat was 3.8 ± 0.2 min⁻¹ in data set [1] (+DNA, oligo(dT)20); 3.2 ± 0.1 min⁻¹ in data set [1] (+RNA, oligo(rU)20); 1.6 ± 0.2 min⁻¹ in data set [1] (absence of nucleic acids). Besides, the “Intrinsic ability to hydrolyze ATP” value in data set [1] (absence of nucleic acid) was “detectable ATPase activity”. For the same compound, the “Increase of catalytic efficiency (kcat/Km) by DNA” value in data set [1] (setting [5]) amounted to 3.2 fold. For the same compound, the “Increase of catalytic efficiency (kcat/Km) by RNA” value in data set [1] (setting [5]) came out at 2.8 fold. Besides, the DNA unwinding entry in data set [2] (DNA duplex with a single 5′-protruding end, 18/[5′]-38 mer) is listed as “able to unwind”; in data set [2] (DNA duplex with both 5′- and 3′-protruding ssDNA ends, 18/[5′-3′]-38 mer) it was “able to unwind”; in data set [2] (substrate with a 3′-ss DNA region, 18/[3′]-38 mer), “not”. The Aburst in data set [3] (+DNA, oligo(dT)20) came out at 0.9 ± 0.1 µM; in data set [3] (+RNA, oligo(rU)20), 0.75 ± 0.1 µM; in data set [3] (absence of nucleic acids), 0.25 ± 0.05 µM. Also, the k burst in data set [3] (+DNA, oligo(dT)20) was found to be 9.5 ± 0.8 min⁻¹; in data set [3] (+RNA, oligo(rU)20) it was 7 ± 0.8 min⁻¹; in data set [3] (absence of nucleic acids), 4.1 ± 0.7 min⁻¹. The k ss in data set [3] (+DNA, oligo(dT)20) worked out at 0.4 ± 0.03 min⁻¹; in data set [3] (+RNA, oligo(rU)20), 0.4 ± 0.09 min⁻¹; in data set [3] (absence of nucleic acids), 0.3 ± 0.08 min⁻¹. In data set [4], the “Reduction of RNA unwinding rate by addition of the trap” value is “about 2 fold”. Further, the “k uw (apparent rate of RNA unwinding)” value amounted to 0.05 ± 0.01 min⁻¹ in data set [4] (+trap, 50-fold molar excess r(A)40 ssRNA, single-turnover) and 0.11 ± 0.02 min⁻¹ in data set [4] (without trap).

Turning to SDVPTQVGGRRRRRRRRR [DDX3-INS1], the “Toxicity for the cells” value in the data set on HelaP4 cells was “not toxic”.

For `O=C(CN1C(=O)/C(=C/c2cccc(Br)c2)SC1=S)Nc1ccccc1O` [FE15], the “Inhibition of ATP hydrolysis” value on N-DDX3 and at DDX3wt was “inhibited” throughout.
